{"source": "patent US8647824B2", "about": "“Microbial reductive dehalogenation of vinyl chloride” (The Board of Trustees of the Leland Stanford Junior …, priority 2004, dated 2014)", "key": {"[1]": {"system": "Victoria mixed culture, containing strain VS", "assay": "Batch dechlorination and growth kinetics, Victoria mixed culture", "format": "cell-based, Dehalococcoides species strain VS", "from_the_text": "(§1) Stock cultures. The Victoria mixed culture, containing strain VS, was maintained in a closed continuously stirred tank reactor (CSTR) as previously described. A VC enrichment of this culture, maintained over 5 years, was also used in these investigations. Liquid cultures of the three other cultures evaluated (Pinellas, KB-1/VC, and Dehalococcoides ethenogenes strain 195) were kept in anaerobic bottles, stored in an anaerobic chamber (10% H2, 10% CO2, 80% N2). The bottles were amended with TCE (1-3 μL neat liquid), VC (250 μL gas), and PCE (1-3 μL neat liquid) being added to each, respectively, approximately every two weeks.\n(§2) Batch studies. For the experimental portion of this research, two studies were undertaken, one a comparative VC growth study, and the other a comparative growth and substrate utilization study with different chlorinated ethenes. These studies compared the dechlorination abilities of Dehalococcoides ethenogenes strain 195 and the Dehalococcoides-like microorganisms in the three mixed cultures (Victoria, KB-1/VC, and Pinellas).\n(§3) For the first study, a VC enriched inoculum was first developed for each of the three mixed cultures. Here, bottles (120 mL) were filled with 60 mL of anaerobic media in an anaerobic chamber as previously described, and inoculated with 200 μL of each stock culture. Gaseous VC (99.5%) was added with a gas tight syringe (200 μL). The cultures were then moved to a shaker (60-80 rpm) in an anaerobic chamber (20±2° C.). Immediately after 5 μmol of ethene was formed in a bottle, 200 μL of the culture was transferred to fresh media (60 mL), in triplicate, and VC was again added (200 μL). The inoculum for the growth study was that formed after exactly 4 μmol of ethene was produced following this second transfer. To compare growth rates on VC, a range in concentration of each inocula (0.1, 0.3, 1, 3, 9 mL) was transferred to fresh media (as above) to result in a liquid volume of 60 mL, and gaseous VC (200 μL) was added to each. […] Hydrogen served as the electron donor and was non-limiting (>3%) in all studies. Headspace samples were periodically removed by syringe (250 μL) for chlorinated ethene analyses.\n(§4) The purpose of the second study was to compare dechlorination rates of PCE, TCE and DCE between the three different cultures that grew on VC (Victoria, KB-1/VC and Pinellas). The development of inocula here was performed with VC, just as in the first study. For the growth and substrate utilization experiments, triplicate bottles were set up for each culture containing 1 mL of inoculum and either neat PCE (0.4 μL), neat TCE (0.3 μL), saturated DCE solution (34 μL) or gaseous VC (200 μL). To further investigate TCE removal, bottles (120 mL) were filled with 20 mL of a highly enriched culture of strain VS made from the Victoria culture. Duplicate bottles were supplied with gaseous VC (50 μL on day 0, then 150 μL on day 3) or TCE (0.4 μL neat liquid). Dechlorination was followed until all VC or TCE was converted to ethene (day 12). The change in strain VS concentration during VC and TCE utilization was then determined both by competitive PCR and by an activity procedure evaluated previously for strain VS. In the activity procedure a non-growth limiting concentration of VC (150 μL) along with excess hydrogen is added to a culture and the initial dechlorination rate is measured (over <1 day). A good estimate of strain VS concentration can then be obtained using the previously determined strain VS maximum VC utilization rate (7.8×10^−10 μmol Cl^− (cell·d)^−1). The increase in strain VS concentration during TCE or VC utilization was determined with these two procedures on the culture before and after TCE and VC utilization.\n(§5) Comparative dechlorination and growth kinetics. With mixed cultures, the concentration of organisms carrying out a particular reaction is generally unknown and difficult to determine. […]"}, "[2]": {"system": "Dehalococcoides ethenogenes strain 195", "assay": "Batch dechlorination, D. ethenogenes strain 195 culture", "format": "cell-based", "settings": "cultures supplied with VC or DCE", "from_the_text": "as §1, §2\nFor the first study, a VC enriched inoculum was first developed for each of the three mixed cultures. Here, bottles (120 mL) were filled with 60 mL of anaerobic media in an anaerobic chamber as previously described, and inoculated with 200 μL of each stock culture. Gaseous VC (99.5%) was added with a gas tight syringe (200 μL). […]"}, "Pinellas culture": {"system": "Pinellas culture", "assay": "Batch dechlorination and growth kinetics, Pinellas culture", "format": "cell-based, Dehalococcoides-like microorganisms", "from_the_text": "as §1, §2, §3, §4, §5"}, "KB-1/VC culture": {"system": "KB-1/VC culture", "assay": "Batch dechlorination and growth kinetics, KB-1/VC culture", "format": "cell-based, Dehalococcoides-like microorganisms", "from_the_text": "as §1, §2, §3, §4, §5"}, "[3]": {"system": "VC reductive dehalogenase of Dehalococcoides sp. strain VS", "assay": "VC-reduction enzyme assay with Ti(III)-reduced methyl viologen as electron donor, gas chromatography", "format": "biochemical", "experimental": "Enzyme assays. Cells were harvested by centrifugation (20,000 g, 20 min, 4° C.) under strictly anoxic conditions using the anoxic chamber, washed and resuspended in degassed MOPS buffer (20 mM, pH 7.2) supplemented with 2 mM DTE and 0.2 mM titanium(III)NTA (buffer A). The buffer was incubated overnight in the anoxic chamber before addition of reducing agents. Cell-free extracts were obtained by anoxic disruption of cells by French Press treatment (138 MPa; two passages), followed by two centrifugation steps (30,000×g, 15 min, 4° C.).\nAssays of VC-reduction were conducted as described previously in 2-ml glass vials under an N2/H2 atmosphere with Ti(III)-reduced methyl viologen as artificial electron donor (Rosner et al.) The protein concentration in the assay varied between 10 and 100 μg/ml. The test was started by addition of gaseous VC to the assay mix (total aqueous volume 0.3 ml), and change in VC and ethene concentrations were followed with time by gas chromatography. Experiments testing for reduction of liquid chlorinated ethenes (PCE, TCE, DCE-isomers) were carried out essentially as described above with the appropriate substitution of the chlorinated ethene. The chlorinated compounds were added from aqueous stock solutions.\nOxygen sensitivity of VC-reducing activity in cell-free extract was investigated in buffer amended with resazurin as redox indicator. Prior to addition of VC, the assay was exposed to air until the resazurin underwent a color-change from colorless to pink. Subsequently, the assay was rendered anoxic again by exchanging the gas phase inside the anoxic chamber followed by addition of Ti(III)NTA (5 mM final concentration). All enzyme assays were carried out at ambient temperature, and given activities are means of at least three independent measurements.\nPartial purification of VC reductase. Protein purification was performed at 4° C. in the anoxic chamber. The membrane fraction was obtained by centrifugation of cell-free extract at 100,000×g for 90 min at 4° C. The pellet was resuspended in 1 ml buffer A supplemented with 2 mM 3-[(3-cholamidopropyl)dimethylammonio]-1-propanesulfonic acid (CHAPS), and incubated for 1 h on ice. After subsequent centrifugation (100,000×g, 90 min, 4° C.) the solubilized membrane fraction was diluted with an equal volume of buffer B (50 mM 1,3-Bis[tris(hydroxymethyl)methylamino]propane (Bis-Tris Propane), pH 9.6, 2 mM dithiothreitol, 0.2 mM titanium(III)NTA, 20 mM CHAPS), and loaded on a 1-ml HighTrap Q column (Amersham Pharmacia) equilibrated with buffer C (same as buffer B but with 2 mM CHAPS). VC reductive dehalogenase activity was eluted as a single peak (at 550 to 580 mM NaCl) with 10 ml buffer C followed by a 40-ml linear gradient from 0-700 mM NaCl in buffer C at a flow of 1 ml/min. Fractions containing the highest activity were pooled and mixed with an equal volume of buffer A containing 20 mM CHAPS, and applied to a Superose-6 column equilibrated with the same buffer. Enzyme activity was eluted with buffer A at a flow rate of 0.2 ml/min. The protein concentration of the samples was determined according to Bradford with bovine serum albumin as a standard."}}, "note": "Several values for one entry are separate records, joined by “and”; a condition that tells them apart may be missing. Identical values can stand only once.", "data": [{"molecule": "Cl/C=C\\Cl", "note": "[DCE, cis-1,2-dichloroethene]", "values": [{"measurement": "Maximum Growth Rate", "setting": "[1]; VS Mixed (Victoria) culture, 95% confidence interval, least-squares model fit", "result": "0.46 ± 0.04", "unit": "day⁻¹"}, {"measurement": "dechlorination by D. ethenogenes strain 195", "setting": "[2]", "result": "did dechlorinate DCE to VC"}, {"measurement": "Maximum Growth Rate", "setting": "Pinellas culture; 95% confidence interval", "result": "0.43 day⁻¹ and 0.43 ± 0.00 day⁻¹"}, {"measurement": "Maximum Growth Rate", "setting": "KB-1/VC culture; 95% confidence interval", "result": "0.44 ± 0.02", "unit": "day⁻¹"}]}, {"molecule": "ClC(Cl)=C(Cl)Cl", "note": "[PCE, tetrachloroethene]", "values": [{"measurement": "lag period before PCE dechlorination", "setting": "[1]; Victoria mixed culture", "result": "6 to 12", "unit": "days"}, {"measurement": "PCE dechlorination", "setting": "Pinellas culture", "result": "failed to dechlorinate"}, {"measurement": "PCE dechlorination", "setting": "KB-1/VC culture", "result": "failed to dechlorinate"}, {"measurement": "transformation during the course of the enzyme assay", "setting": "[3]; 2 h", "result": "not transformed"}, {"measurement": "effect on the reduction rate of VC", "setting": "[3]; saturating concentrations of PCE or TCE present", "result": "not affected"}]}, {"molecule": "VC reductive dehalogenase: VC reductive dehalogenase partially purified from Dehalococcoides sp. strain VS; corrinoid/iron-sulfur cluster reductive dehalogenase (protein, partially purified native enzyme; Dehalococcoides sp. VS) MSKFHKTISRRDFMKGLGLAGAGIGAVAASAPVFHDIDELVSSEANSTKDQPWYVKHREHFDPTITVDWDIFDRYDGYQHKGVYEGPPDAPFTSWGNRLQVRMSGEEQKKRILAAKKERFPGWDGGLHGRGDQRADALFYAVTQPFPGSGEEGHGLFQPYPDQPGKFYARWGLYGPPHDSAPPDGSVPKWEGTPEDNFLMLRAAAKYFGAGGVGALNLADPKCKKLIYKKAQPMTLGKGTYSEIGGPGMIDAKIYPKVPDHAVPINFKEADYSYYNDAEWVIPTKCESIFTFTLPQPQELNKRTGGIAGAGSYTVYKDFARVGTLVQMFIKYLGYHALYWPIGWGPGGCFTTFDGQGEQGRTGAAIHWKFGSSQRGSERVITDLPIAPTPPIDAGMFEFCKTCYICRDVCVSGGVHQEDEPTWDSGNWWNVQGYLGYRTDWSGCHNQCGMCQSSCPFTYLGLENASLVHKIVKGVVANTTVFNSFFTNMEKALGYGDLTMENSNWWKEEGPIYGFDPGT", "values": [{"measurement": "Sp act (VC reduction)", "setting": "[3]; step: Anionic exchange chromotagraphy", "result": 638, "unit": "mU/mg protein"}, {"measurement": "Sp act (VC reduction)", "setting": "[3]; step: Cell-free extract, 1 mU = 1 nmol VC per minute", "result": 220, "unit": "mU/mg protein"}, {"measurement": "Sp act (VC reduction)", "setting": "[3]; step: Gelfiltration", "result": 990, "unit": "mU/mg protein"}, {"measurement": "Sp act (VC reduction)", "setting": "[3]; step: Membrane fraction", "result": 346, "unit": "mU/mg protein"}, {"measurement": "Sp act (VC reduction)", "setting": "[3]; step: Solubilized membrane fraction", "result": 308, "unit": "mU/mg protein"}]}]}
